Source: publication PMC9052211 (RSC Advances, 2020)

Legend:
Assay type in all cases: cell-based
[1] = tested on: Jurkat neoplastic cells; experiment: Cytotoxic activity by flow cytometry with 7-AAD staining, Jurkat; details: Homo sapiens, 24 h, read-out: Cytotoxic activity IC50, Jurkat
[2] = tested on: K562 neoplastic cells; experiment: Cytotoxic activity by flow cytometry with 7-AAD staining, K562; details: Homo sapiens, K562, 24 h, read-out: Cytotoxic activity IC50, K562
[3] = tested on: U937 neoplastic cells; experiment: Cytotoxic activity by flow cytometry with 7-AAD staining, U937; details: Homo sapiens, U-937, 24 h, read-out: Cytotoxic activity IC50, U937
[4] = Cytotoxic activity by flow cytometry with 7-AAD staining, HEK293; details: human

Row | SMILES | IC50 [1] | IC50 [2] | IC50 [3] | IC50 at 24 h [4]
1 | Cc1n[nH]c(C)c1CSC1CCCCC1 [Compound 4c, 4-[(Cyclohexylsulfanyl)methyl]-3,5-dimethyl-1H-pyrazole] | 1.49 ± 0.06 µM | 2.16 ± 0.06 µM | 1.98 ± 0.07 µM | 3.15 ± 0.05 µM
2 | Cc1n[nH]c(C)c1CSc1ccccc1 [Compound 4a, 3,5-Dimethyl-4-[(phenylsulfanyl)methyl]-1H-pyrazole] | 2.47 ± 0.03 µM | 2.89 ± 0.03 µM | 2.94 ± 0.03 µM | 3.8 ± 0.03 µM
3 | Cc1n[nH]c(C)c1CSc1ccc(O)cc1 [Compound 4d, 4-{[(3,5-Dimethyl-1H-pyrazol-4-yl)methyl]sulfanyl}-phenol] | 1.89 ± 0.02 µM | 2.34 ± 0.01 µM | 2.27 ± 0.02 µM | 3.34 ± 0.08 µM
4 | Cc1n[nH]c(C)c1CSCc1ccccc1 [Compound 4b, 4-[(Benzylsulfanyl)methyl]-3,5-dimethyl-1H-pyrazole] | 1.24 ± 0.05 µM | 1.98 ± 0.06 µM | 2.15 ± 0.06 µM | 2.98 ± 0.06 µM
